Source: ChEMBL document CHEMBL5665440, “ASAP - In vitro liver microsomal stability” (2024)
Where “and” joins values, the source holds several entries; their conditions need not be identical. Identical values can stand only once.

How the values were obtained:
[1] = (§1) Human liver microsomal stability of compound in microsomal protein, PBS buffer pH 7.4, NADPH, glucose-6-phosphate and glucose-6-phosphate dehydrogenase media. Aliquotes were taken at 5 time points and after stopping the reaction, supernatants were analyzed using HPLC coupled with a tandem mass spectrometer. The elimination constant, half-life, and intrinsic clearance are determined as results using linear regression analysis.; assay type: ADME, microsomes, Microsome; conditions: for half-life / microsomal CLint: liver microsomes; for Remaining / Remaining (without cofactor) / CLint / T1/2: microsomes
[2] = as §1, with “Mouse” for “Human”; assay type: ADME, microsomes, Microsome; conditions: for half-life / microsomal CLint: liver microsomes; for Remaining / Remaining (without cofactor) / CLint / T1/2: microsomes
Throughout, for Remaining (without cofactor): time not given here.
Throughout, for Remaining: time not given here.

| SMILES | half-life [1] [h] | microsomal CLint [1] [µL/min/mg] | Remaining [1] | Remaining (without cofactor) [1] | half-life [2] [h] | microsomal CLint [2] [µL/min/mg] | Remaining [2] | Remaining (without cofactor) [2] | CLint [1] [µL/min/mg] | T1/2 [1] [h] | CLint [2] [µL/min/mg] | T1/2 [2] [min] |
| --- | --- | --- | --- | --- | --- | --- | --- | --- | --- | --- | --- | --- |
| O=C(NCC(F)F)[C@H](Nc1ccc2c(c1)CNC2)c1cc(Cl)cc(C2CC2)c1 | > 2.89 | < 10 | 87.774% and 93.401% and 87.317% and 91.082% | 101.867% and 96.07% and 104.631% and 112.978% | > 2.89 | < 10 | 90.622% and 93.184% | 90.232% and 99.155% |  |  |  |  |
| O=C1Cc2c(cccc2C(=O)Nc2ccc3c(c2)CNC3)N1 | > 2.89 | < 10 | 90.707% | 85.739% | > 2.89 | < 10 | 102.559% | 103.618% |  |  |  |  |
| O=C(Nc1ccc2c(c1)CNC2)c1cc(Br)cc2[nH]c(-c3ccccc3)nc12 | 2.18 | 12.8 | 80.427% | 94.891% | 0.636 | 43.8 | 49.173% | 86.086% |  |  |  |  |
| O=C(Nc1ccc2c(c1)CNC2)c1cc(F)cc2[nH]ncc12 | > 2.89 | < 10 | 86.703% | 98.509% | 0.154 | 180 | 5.066% | 103.462% |  |  |  |  |
| O=C(Nc1ccc2c(c1)CNC2)c1cc(Cl)cc2ccncc12 | > 2.89 | < 10 | 107.799% | 101.944% | 1.14 | 24.5 | 67.731% | 99.51% |  |  |  |  |
| CN(c1ccc2c(c1)CNC2)[C@H](C(=O)NCC(F)F)c1cc(Cl)cc(C2CC2)c1 | 1.63 | 17.1 | 74.869% | 95.997% | 2.63 | 10.6 | 80.041% | 110.954% |  |  |  |  |
| O=C(Nc1ccc2c(c1)CNC2)c1cc(F)cc(-c2cn[nH]c2)c1 | 0.79 | 35.2 | 55.679% and 55.059% | 98.537% and 92.131% | 0.051 | 545 | 0.198% and 0.909% | 96.471% and 97.807% | 36.323 | 0.76638 | 553.458 | 3.018 |
| O=C(Nc1ccc2c(c1)CNC2)c1cccc2[nH]c(C(F)(F)F)cc12 | 1.97 | 14.1 | 78.018% | 74.757% | 2.19 | 12.7 | 75.758% | 108.523% |  |  |  |  |
| O=C(Nc1ccc2c(c1)CNC2)c1cc(Cl)cc2cn[nH]c12 | > 2.89 | < 10 | 105.314% | 104.393% | 0.516 | 54 | 41.728% | 98.046% |  |  |  |  |
| N#Cc1cccc(-c2nc3c(C(=O)Nc4ccc5c(c4)CNC5)cc(F)cc3[nH]2)c1 | > 2.89 | < 10 | 89.52% | 98.721% | 1.27 | 22 | 68.981% | 99.493% |  |  |  |  |
| O=C(Nc1cc2c(c(-c3c[nH]c(=O)c(F)c3)c1)CNC2)c1cc(F)cc2[nH]ncc12 | > 2.89 | < 10 | 95.49% | 97.444% | 0.115 | 243 | 2.163% | 108.846% |  |  |  |  |
| O=C(Nc1ccc2c(c1)CNC2)c1cc(Cl)cc2[nH]ncc12 | > 2.89 | < 10 | 87.652% | 96.46% | 0.115 | 243 | 1.932% | 102.129% |  |  |  |  |
| CNC(=O)[C@H](Nc1ccc2c(c1)CNC2)c1cc(Cl)cc2[nH]c(-c3ccccc3)nc12 | > 2.89 | < 10 | 91.331% | 107.659% | > 2.89 | < 10 | 95.033% | 94.186% |  |  |  |  |
| COCc1cc(Cl)cc([C@H](Nc2ccc3c(c2)CNC3)C(=O)NCC(F)F)c1 | > 2.89 | < 10 | 94.228% | 112.017% | > 2.89 | < 10 | 97.4% | 108.672% |  |  |  |  |
| Cn1cc2c(C(=O)Nc3ccc4c(c3)CNC4)cc(F)cc2n1 | > 2.89 | < 10 | 100.772% | 105.44% | 1.53 | 18.2 | 76.341% | 103.175% |  |  |  |  |
| N#Cc1cc2c(cc1NC(=O)c1cc(F)cc3[nH]ncc13)CNC2 | > 2.89 | < 10 | 85.714% and 76.558% | 101.075% and 93.161% | 0.0957 | 291 | 0.854% and 0.916% | 97.455% and 90.578% | 16.74 | 1.6629 | 288.453 | 5.79 |
| O=C(Nc1cc(Br)c2c(c1)CNC2)c1cc(F)cc2[nH]ncc12 | 2.05 | 13.6 | 77.163% | 100.794% | 0.192 | 145 | 10.289% | 104.117% |  |  |  |  |
| O=C1Cc2c(cc(F)cc2C(=O)Nc2ccc3c(c2)CNC3)N1 | > 2.89 | < 10 | 99% | 112.283% | > 2.89 | < 10 | 87.64% | 93.435% |  |  |  |  |
| O=C(Nc1cc2c(cc1C1CC1)CNC2)c1cc(F)cc2[nH]ncc12 | > 2.89 | < 10 | 104.365% | 104.155% | 0.321 | 86.8 | 23.262% | 95.024% |  |  |  |  |
| Cn1c(=O)[nH]c2c(C(=O)Nc3ccc4c(c3)CNC4)cc(Br)cc21 | > 2.89 | < 10 | 97.872% | 85.479% | 2.23 | 12.5 | 78.028% | 113.254% |  |  |  |  |
| O=C(Nc1ccc2c(c1)CNC2)c1cc(F)cc2c1CCC2 | > 2.89 | < 10 | 95.811% | 102.779% | 0.745 | 37.4 | 53.571% | 103.66% |  |  |  |  |
| O=C(NCC(F)F)[C@H](Nc1ccc2c(c1)CNC2)c1cc(Cl)cc2ccoc12 | > 2.89 | < 10 | 100.816% | 103.719% | > 2.89 | < 10 | 93.727% | 105.352% |  |  |  |  |
| O=C(Nc1ccc2c(c1)CNC2)c1cc(F)cc2[nH]c(-c3ccc(F)cc3)nc12 | > 2.89 | < 10 | 90% | 94.287% | 0.756 | 36.8 | 54.776% | 103.385% |  |  |  |  |
| COc1cc(-c2cc(NC(=O)c3cc(F)cc4[nH]ncc34)cc3c2CNC3)ccn1 | > 2.89 | < 10 | 90.289% | 101.002% | 0.107 | 260 | 1.475% | 106.757% |  |  |  |  |
| CC(C)n1cc2c(C(=O)Nc3ccc4c(c3)CNC4)cc(Cl)cc2n1 | > 2.89 | < 10 | 96.618% | 96.957% | > 2.89 | < 10 | 89.02% | 93.513% |  |  |  |  |
| O=C(Nc1cc2c(cc1Br)CNC2)c1cc(F)cc2[nH]ncc12 | 2.44 | 11.4 | 83.663% | 98.81% | 0.093 | 299 | 0.737% | 95.151% |  |  |  |  |
| O=C(Nc1cc2c(c(C3=CCS(=O)(=O)CC3)c1)CNC2)c1cc(F)cc2[nH]ncc12 | > 2.89 | < 10 | 98.934% | 96.094% | 0.287 | 96.9 | 20.909% | 113.863% |  |  |  |  |
| O=C(Nc1ccc2c(c1)CNC2)c1cc(Cl)cc2c1cnn2C1CCC1 | > 2.89 | < 10 | 93.064% | 105.277% | 2.08 | 13.4 | 78.077% | 96.092% |  |  |  |  |
| O=C(Nc1cc2c(c(C3=CCOCC3)c1)CNC2)c1cc(F)cc2[nH]ncc12 | > 2.89 | < 10 | 90.19% | 105.644% | 0.184 | 152 | 8.587% | 96.063% |  |  |  |  |
